Data: ChEMBL document CHEMBL5236551, “Andrographolide and its derivatives: Current achievements and future perspectives” (Eur J Med Chem, 2021)
In brackets after ≈: the same amount, converted by molar mass.

Columns and labels:
Pseudomonas aeruginosa [1] = experiment: Antibiofilm activity against Pseudomonas aeruginosa MTCC 7814 assessed as inhibition of biofilm formation at 0.1 mM in presence of azithromycin or gentamicin incubated for 48 hrs relative to control; assay type: functional; details: MTCC 7814, 48 h
Rattus norvegicus [2] = experiment: Anti-inflammatory activity against egg albumin-induced paw edema in Sprague-Dawley rat assessed as inhibition of paw edema at 0.90 mmol/Kg, po preadministered once daily via gavage for 3 days followed by egg albumin addition measured at 120 min by plethysmometric analysis relative to control; assay type: functional; details: 72 h, at 0.9 mmol/kg, time 3 day
Mus musculus = experiment: Anti-inflammatory activity against dimethylbenzene-induced auricular edema Kunming mouse model assessed as inhibition of ear edema at 1.35 mmol/Kg, po administered once daily via gavage for 3 days relative to control; assay type: functional; details: 72 h, time 3 day
[3] = Antimigratory activity against human LX2 cells assessed as inhibition rate at 5 uM relative to control; assay type: functional; details: LX-2
[4] = Inhibition of TGF-beta1 induced mesenchymal transformation in human A549 cells assessed as inhibition rate at 1.25 uM relative to control; assay type: functional
[5] = Antimigratory activity against Ang II-induced human Cardiac fibroblast cells assessed as inhibition rate at 0.16 uM relative to control; assay type: functional
HCT-116 [6] = experiment: Antiproliferative activity against human HCT-116 cells assessed as cell growth inhibition incubated for 72 hrs by CCK8 assay; assay type: functional, cell-based; details: HCT-116, 72 h
MCF7 [7] = experiment: Antiproliferative activity against human MCF7 cells assessed as cell growth inhibition incubated for 72 hrs by CCK8 assay; assay type: functional, cell-based; details: MCF7, 72 h
[8] = test system: Human immunodeficiency virus 1; experiment: Antiviral activity against HIV-1 infected in human C8166 cells; assay type: functional, organism-based; details: Human immunodeficiency virus 1, C8166
Rattus norvegicus [9] = experiment: Anti-inflammatory activity against egg white-induced paw edema in rat model assessed as detumescence rate measured after 6 hrs relative to control; assay type: functional
Klebsiella aerogenes = experiment: Antibacterial activity against Klebsiella aerogenes assessed as bacterial growth inhibition by agar dilution method; assay type: functional
Pseudomonas aeruginosa [10] = experiment: Antibacterial activity against Pseudomonas aeruginosa assessed as bacterial growth inhibition by agar dilution method; assay type: functional
HT-29 = experiment: Cytotoxicity against human HT-29 cells assessed as cell growth inhibition after 48 hrs by SRB assay; assay type: functional, cell-based; details: HT-29, 48 h
UACC-62 = experiment: Cytotoxicity against human UACC-62 cells assessed as cell growth inhibition after 48 hrs by SRB assay; assay type: functional, cell-based; details: UACC-62, 48 h
DU-145 = experiment: Cytotoxicity against human DU-145 cells assessed as cell growth inhibition after 48 hrs by SRB assay; assay type: functional, cell-based; details: DU-145, 48 h
OVCAR-8 = experiment: Cytotoxicity against human OVCAR-8 cells assessed as cell growth inhibition after 48 hrs by SRB assay; assay type: functional, cell-based; details: OVCAR-8, 48 h
NCI-H522 = experiment: Cytotoxicity against human NCI-H522 cells assessed as cell growth inhibition after 48 hrs by SRB assay; assay type: functional, cell-based; details: NCI-H522, 48 h
SW-620 = experiment: Cytotoxicity against human SW620 cells assessed as cell growth inhibition after 48 hrs by SRB assay; assay type: functional, cell-based; details: SW-620, 48 h
PC-3 = experiment: Cytotoxicity against human PC-3 cells assessed as cell growth inhibition after 48 hrs by SRB assay; assay type: functional, cell-based; details: PC-3, 48 h
MCF7 [11] = experiment: Cytotoxicity against human MCF7 cells assessed as cell growth inhibition after 48 hrs by SRB assay; assay type: functional, cell-based; details: MCF7, 48 h
NCI/ADR-RES = experiment: Cytotoxicity against human MCF7/ADR cells assessed as cell growth inhibition after 48 hrs by SRB assay; assay type: functional, cell-based
HCT-116 [12] = experiment: Antiproliferative activity against human HCT-116 cells assessed as cell growth inhibition measured after 48 hrs by MTT assay; assay type: functional, cell-based; details: HCT-116, 48 h
Rattus norvegicus [13] = species: Rattus norvegicus; experiment: Antiplatelet activity against arachidonic acid-induced Sprague-Dawley rat platelet aggregation assessed as inhibition of platelet aggregation preincubated for 2 mins followed by arachidonic acid addition by turbidimetric method; assay type: functional; details: Arterial blood
Rattus norvegicus [14] = species: Rattus norvegicus; experiment: Antiplatelet activity against thrombin-induced Sprague-Dawley rat platelet aggregation assessed as inhibition of platelet aggregation preincubated for 2 mins followed by thrombin addition by turbidimetric method; assay type: functional; details: Arterial blood
Rattus norvegicus [15] = species: Rattus norvegicus; experiment: Antiplatelet activity against collagen-induced Sprague-Dawley rat platelet aggregation assessed as inhibition of platelet aggregation preincubated for 2 mins followed by collagen addition by turbidimetric method; assay type: functional; details: Arterial blood

Q: With `C=C1CCC2[C@](C)(CO)[C@H](O)CC[C@@]2(C)[C@@H]1/C=C/C1=CCOC1=O` (stereo partly drawn) as the compound, how does the inhibition at 100 µM (Pseudomonas aeruginosa [1]) read?
A: 92%

Q: What does the source list for `C=C1CC[C@@H]2[C@](C)(COC(=O)c3cccnc3)[C@H](OC(=O)c3cccnc3)CC[C@@]2(C)[C@@H]1/C=C/C1=CC(=C/c2ccc(Cl)cc2)/OC1=O`?
A: inhibition in vivo at 900 µmol/kg (Rattus norvegicus [2]): 50.4%; inhibition in vivo at 1350 µmol/kg (Mus musculus): 79.4%

Q: Which results are given for `C=C1CCC2[C@](C)(C=O)c3nc(N)sc3C[C@@]2(C)[C@@H]1/C=C/C1=CCOC1=O` (stereo partly drawn)?
A: inhibition at 5 µM [3]: > 20%; inhibition at 1.25 µM [4]: > 65%

Q: Which inhibition at 5 µM [3] does the source give for `C=C1CCC2[C@](C)(CO)NC(=O)CC[C@@]2(C)[C@@H]1/C=C/C1=CCOC1=O` (stereo partly drawn) here?
A: > 40%

Q: What about the inhibition at 0.16 µM [5] of the same compound?
A: > 95%

Q: And the inhibition at 1.25 µM [4]?
A: > 60%

Q: Which results are given for `C=C1CC[C@H]2[C@@](C)(C=CC(=O)[C@@]2(C)COC(=O)c2ccccc2)[C@@H]1C/C=C1/C(=O)OC[C@H]1O`?
A: IC50 (HCT-116 [6]): 2.49 µM; IC50 (MCF7 [7]): 7.8 µM

Q: Which IC50 [8] does the source give for `C=C1CCC2[C@](C)(CO)[C@H](O)CC[C@@]2(C)[C@@H]1CCC1C(=O)N(C)C[C@H]1O` (stereo partly drawn) here?
A: 4.1 µM

Q: With `C[C@@]12CCC3[C@](C)(COC(=O)CCC(=O)O)[C@H](OC(=O)CCC(=O)O)CC[C@@]3(C)[C@@H]1CC(C1=CCOC1=O)O2` (stereo partly drawn) as the compound, how does the “inhibition (INH)” value (Rattus norvegicus [9]) read?
A: 93.18%

Q: Which results are given for `C=C1CCC2[C@](C)(CO)[C@H](O)CC[C@@]2(C)[C@@H]1C/C=C(/C(=O)OCC)[C@H](O)CO` (stereo partly drawn)?
A: MIC (Klebsiella aerogenes): 18.9 µg/mL (≈ 47.7 µM); MIC (Pseudomonas aeruginosa [10]): 18.9 µg/mL (≈ 47.7 µM)

Q: For `C=C1CCC2[C@](C)(CO)[C@H](O)CC[C@@]2(C)[C@@H]1C/C=C/c1ccc(F)cc1` (stereo partly drawn), which IC50 (HT-29) is on record?
A: 16 µM

Q: And the IC50 (UACC-62)?
A: 17 µM

Q: And the IC50 (DU-145)?
A: 7 µM

Q: What about the IC50 (OVCAR-8) of the same compound?
A: 2 µM

Q: What about the IC50 (NCI-H522) of the same compound?
A: 3 µM

Q: What about the IC50 (SW-620) of the same compound?
A: 20 µM

Q: What about the IC50 (PC-3) of the same compound?
A: 14 µM

Q: And the IC50 (MCF7 [11])?
A: 14 µM

Q: And the IC50 (NCI/ADR-RES)?
A: 4 µM

Q: With `C=C1CC[C@@H]2[C@](C)(COC(C)=O)[C@H](OC(C)=O)CC[C@@]2(C)[C@@H]1CC(Nc1ccccc1SC)C1=CCOC1=O` (stereo partly drawn) as the compound, how does the IC50 (HCT-116 [12]) read?
A: 5.8 µM

Q: What does the source list for `C=C1CCC2[C@](C)(COC(=O)CCC(=O)O)[C@H](OC(=O)CCC(=O)O)CC[C@@]2(C)[C@@H]1/C=C/c1cc(=O)oc2cc(OC(C)=O)ccc12` (stereo partly drawn)?
A: IC50 (Rattus norvegicus [13]): 0.48 µM; IC50 (Rattus norvegicus [14]): 0.36 µM; IC50 (Rattus norvegicus [15]): 0.5 µM

Q: Which IC50 [8] does the source give for `C=C1CCC2[C@](C)(COC(=O)Cc3cccc4ccccc34)[C@H](OC(=O)c3cccnc3)CC[C@@]2(C)[C@@H]1/C=C/C1=CCOC1=O` (stereo partly drawn) here?
A: 9.69 µM
